Article PMC7286788 (ACS infectious diseases, 2019)

Assays:
[1] = biological target: T1, HyMurG (Hydrogenivirga sp. 128-5-R1-1, UniProt A8US35); assay: UV-Vis-based MurG assay; type: biochemical; conditions: 50–100 μM
[2] = test system: M. smegmatis (ATCC607); assay: MIC determination, resazurin, M. smegmatis; type: cell-based, Mycobacterium smegmatis; conditions: 7H9 with 0.5% tween 80, 3 days at 37 °C
[3] = test system: M. tuberculosis (H37Rv); assay: MIC determination, M. tuberculosis; type: cell-based, Mycobacterium tuberculosis; conditions: 7H9 containing OADC; 14 days
[4] = test system: Vero cell; assay: Cytotoxicity against Vero cells
[5] = biological target: MsmegMurG (Mycolicibacterium smegmatis, UniProt A0R016); assay: biochemical; set-up: species or system Mycobacterium smegmatis; conditions: read-out: IC50 MsmegMurG; HPLC-based method; average of two-three experiments
Sequence of MsmegMurG (A0R016 whole entry): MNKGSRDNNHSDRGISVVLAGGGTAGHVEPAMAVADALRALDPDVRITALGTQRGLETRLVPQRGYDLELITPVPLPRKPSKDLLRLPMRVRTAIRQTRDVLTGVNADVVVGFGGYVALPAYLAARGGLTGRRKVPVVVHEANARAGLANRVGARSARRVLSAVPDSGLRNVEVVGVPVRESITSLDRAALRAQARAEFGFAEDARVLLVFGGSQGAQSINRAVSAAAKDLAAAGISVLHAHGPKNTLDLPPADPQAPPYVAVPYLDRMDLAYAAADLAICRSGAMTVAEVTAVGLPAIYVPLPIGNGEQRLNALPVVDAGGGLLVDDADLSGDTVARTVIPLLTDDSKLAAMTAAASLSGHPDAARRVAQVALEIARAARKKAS

[6] = biological target: MsmegMraY (Mycolicibacterium smegmatis, UniProt A0R019); assay: biochemical; type: biochemical, Mycobacterium smegmatis
Sequence of MsmegMraY (A0R019 whole entry): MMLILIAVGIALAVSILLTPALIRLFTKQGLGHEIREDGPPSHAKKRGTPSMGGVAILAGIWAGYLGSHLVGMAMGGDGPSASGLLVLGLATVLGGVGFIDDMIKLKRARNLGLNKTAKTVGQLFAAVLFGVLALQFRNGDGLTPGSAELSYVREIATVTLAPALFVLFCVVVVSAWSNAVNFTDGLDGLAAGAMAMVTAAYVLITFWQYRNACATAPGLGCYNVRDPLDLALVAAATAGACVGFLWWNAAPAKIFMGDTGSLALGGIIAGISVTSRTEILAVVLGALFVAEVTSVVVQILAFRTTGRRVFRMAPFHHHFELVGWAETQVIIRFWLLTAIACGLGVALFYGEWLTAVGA

[7] = biological target: T1, HyMurG; assay: HPLC-based MurG assay, dose-response, HyMurG; type: biochemical; conditions: read-out: IC50 HyMurG; HPLC-based method; average of two-three experiments

T1 sequence (A8US35 1-350): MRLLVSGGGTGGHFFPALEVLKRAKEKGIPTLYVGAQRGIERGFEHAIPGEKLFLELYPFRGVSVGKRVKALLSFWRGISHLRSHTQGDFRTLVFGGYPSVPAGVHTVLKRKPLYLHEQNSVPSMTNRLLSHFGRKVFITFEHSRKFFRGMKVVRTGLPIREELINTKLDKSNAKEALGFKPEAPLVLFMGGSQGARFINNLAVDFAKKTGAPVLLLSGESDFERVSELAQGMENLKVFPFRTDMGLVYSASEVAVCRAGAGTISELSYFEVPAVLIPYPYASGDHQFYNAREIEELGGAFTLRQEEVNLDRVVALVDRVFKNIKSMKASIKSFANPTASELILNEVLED

Substance: tunicamycin
- Inhibition of MurG function / lipid II formation [1]: did not inhibit
- M. smegmatis (ATCC607) MIC [2]: 6.25 to 12.5 µg/mL
- M. tuberculosis (H37Rv) MIC [3]: 12.5 µg/mL
- Vero cell cytotoxicity IC50 [4]: 1.56 µg/mL
- IC50 [5]: > 100 µM
- MurX activity after addition of inhibitor ([6]; 50 μM, P-60, protocol B): terminated completely
- IC50 ([6]; read-out: IC50 MsmegMraY, HPLC-based method, average of two-three experiments): 2.9 µM
- IC50 [7]: > 100 µM
